# Like-named read-outs stand apart in the source and are kept apart here.
# Legend:
# α5β3γ2 GABAA/BzR [1] = biological target: T1, α5β3γ2 GABAA/BzR (Homo sapiens, UniProt P18507+P31644); design: expressed in transfected cells; host or cells: LTK cells (given for XLi-093 only); conditions: read-out: Affinity Ki α5; cited from earlier work
# α1β3γ2 GABAA/BzR [2] = biological target: T2, α1β3γ2 GABAA/BzR (Homo sapiens, UniProt P14867+P18507); design: expressed in transfected cells; host or cells: LTK cells (given for XLi-093 only); conditions: read-out: Affinity Ki α1; cited from earlier work
# α6β3γ2 GABAA/BzR [3] = biological target: T3, α6β3γ2 GABAA/BzR (Homo sapiens, UniProt P18507+Q16445); design: expressed in transfected cells; host or cells: LTK cells (given for XLi-093 only); conditions: read-out: Affinity Ki α6; cited from earlier work
# α3β3γ2 GABAA/BzR [4] = biological target: T4, α3β3γ2 GABAA/BzR (Homo sapiens, UniProt P18507+P34903); design: expressed in transfected cells; host or cells: LTK cells (given for XLi-093 only); conditions: read-out: Affinity Ki α3; cited from earlier work
# α2β3γ2 GABAA/BzR [5] = biological target: T5, α2β3γ2 GABAA/BzR (Homo sapiens, UniProt P18507+P47869); design: expressed in transfected cells; host or cells: LTK cells (given for XLi-093 only); conditions: read-out: Affinity Ki α2; cited from earlier work
# [6] = system: Bz BS of GABA(A) receptors; conditions: cited from earlier work
# α5β3γ2 GABAA/BzR [7] = biological target: T1, α5β3γ2 GABAA/BzR; experiment: Competition binding to HEK cell membranes, α5β3γ2; design: expressed in transfected cells
# α3β3γ2 GABAA/BzR [8] = biological target: T4, α3β3γ2 GABAA/BzR; experiment: Competition binding to HEK cell membranes, α3β3γ2; design: expressed in transfected cells
# α2β3γ2 GABAA/BzR [9] = biological target: T5, α2β3γ2 GABAA/BzR; experiment: Competition binding to HEK cell membranes, α2β3γ2; design: expressed in transfected cells
# α6β3γ2 GABAA/BzR [10] = biological target: T3, α6β3γ2 GABAA/BzR; experiment: Competition binding to HEK cell membranes, α6β3γ2; design: expressed in transfected cells
# α1β3γ2 GABAA/BzR [11] = biological target: T2, α1β3γ2 GABAA/BzR; experiment: Competition binding to HEK cell membranes, α1β3γ2; design: expressed in transfected cells
# α4β3γ2 GABAA/BzR = biological target: T6, α4β3γ2 GABAA/BzR (Homo sapiens, UniProt P18507+P48169); experiment: biochemical; format: binding
# T6 construct: expressed in transfected cells; host or cells: LTK cells (given for XLi-093 only)
smiles,measurement,setting,value
CC(C)(C)OC(=O)c1cc2c(cn1)[nH]c1ccc(-c3cccs3)cc12 [35(WYS12)],Ki,α5β3γ2 GABAA/BzR [1],2860 nM
same,Ki,α1β3γ2 GABAA/BzR [2],37 nM
same,Ki,α6β3γ2 GABAA/BzR [3],5000 nM
same,Ki,α3β3γ2 GABAA/BzR [4],314 nM
same,Ki,α2β3γ2 GABAA/BzR [5],166 nM
"COC(=O)c1cc2c(cn1)[nH]c1ccccc12 [-CCM, methyl beta-carboline-3-carboxylate]",modulation,[6]; Supplement Table 1,inverse agonist
"Cc1nnc2ccc(-c3cccc(C(F)(F)F)c3)nn12 [CL-218,872]",modulation,[6]; Supplement Table 1,partial agonist
CCCC(=O)c1cc2c(cn1)[nH]c1ccc(F)cc12 [CM-A57],Ki,α5β3γ2 GABAA/BzR [7]; read-out: Ki α5,254 nM
same,Ki,α3β3γ2 GABAA/BzR [8]; read-out: Ki α3,40 nM
same,Ki,α5β3γ2 GABAA/BzR [1],254 nM
same,Ki,α1β3γ2 GABAA/BzR [2],3.7 nM
same,Ki,α6β3γ2 GABAA/BzR [3],> 2500 nM
same,Ki,α2β3γ2 GABAA/BzR [9]; read-out: Ki α2,27 nM
same,Ki,α3β3γ2 GABAA/BzR [4],40 nM
same,Ki,α6β3γ2 GABAA/BzR [10]; read-out: Ki α6,1000 nM
same,Ki,α1β3γ2 GABAA/BzR [11]; read-out: Ki α1,3.7 nM
same,Ki,α2β3γ2 GABAA/BzR [5],27 nM
CC(C)(C)OC(=O)c1cc2c(cn1)[nH]c1ccc(C(C)(C)C)cc12 [CM-A82a],Ki,α5β3γ2 GABAA/BzR [7]; Ki α5,7.49 nM
same,Ki,α5β3γ2 GABAA/BzR [7]; read-out: Ki α5,7.49 nM
same,Ki,α3β3γ2 GABAA/BzR [8]; Ki α3,24.5 nM
same,Ki,α3β3γ2 GABAA/BzR [8]; read-out: Ki α3,24.5 nM
same,Ki,α5β3γ2 GABAA/BzR [1],7.49 nM
same,Ki,α1β3γ2 GABAA/BzR [2],2.78 nM
same,Ki,α2β3γ2 GABAA/BzR [9]; Ki α2,8.93 nM
same,Ki,α2β3γ2 GABAA/BzR [9]; read-out: Ki α2,8.93 nM
same,Ki,α3β3γ2 GABAA/BzR [4],24.5 nM
same,Ki,α6β3γ2 GABAA/BzR [10]; Ki α6,1000 nM
same,Ki,α1β3γ2 GABAA/BzR [11]; Ki α1,2.78 nM
same,Ki,α1β3γ2 GABAA/BzR [11]; read-out: Ki α1,2.78 nM
same,Ki,α2β3γ2 GABAA/BzR [5],8.93 nM
same,Ki,α4β3γ2 GABAA/BzR,1000 nM
CC(C)(C)OC(=O)c1cc2c(cn1)[nH]c1ccc(F)cc12 [CM-A87],Ki,α5β3γ2 GABAA/BzR [7]; Ki α5,4.61 nM
same,Ki,α5β3γ2 GABAA/BzR [7]; read-out: Ki α5,4.61 nM
same,Ki,α3β3γ2 GABAA/BzR [8]; Ki α3,14.7 nM
same,Ki,α3β3γ2 GABAA/BzR [8]; read-out: Ki α3,14.7 nM
same,Ki,α5β3γ2 GABAA/BzR [1],4.61 nM
same,Ki,α1β3γ2 GABAA/BzR [2],1.62 nM
same,Ki,α2β3γ2 GABAA/BzR [9]; Ki α2,4.54 nM
same,Ki,α2β3γ2 GABAA/BzR [9]; read-out: Ki α2,4.54 nM
same,Ki,α3β3γ2 GABAA/BzR [4],14.7 nM
same,Ki,α6β3γ2 GABAA/BzR [10]; Ki α6,1000 nM
same,Ki,α1β3γ2 GABAA/BzR [11]; Ki α1,1.62 nM
same,Ki,α1β3γ2 GABAA/BzR [11]; read-out: Ki α1,1.62 nM
same,Ki,α2β3γ2 GABAA/BzR [5],4.54 nM
same,Ki,α4β3γ2 GABAA/BzR,1000 nM
COc1ccc2c(c1)C(=O)N1CCC[C@H]1c1c(C(=O)OCc3ccccc3)ncn1-2 [CM-E10],Ki,α5β3γ2 GABAA/BzR [7]; read-out: Ki α5,0.51 nM
same,Ki,α3β3γ2 GABAA/BzR [8]; read-out: Ki α3,14 nM
same,Ki,α2β3γ2 GABAA/BzR [9]; read-out: Ki α2,26 nM
same,Ki,α6β3γ2 GABAA/BzR [10]; read-out: Ki α6,96 nM
same,Ki,α1β3γ2 GABAA/BzR [11]; read-out: Ki α1,23 nM
same,Ki,α4β3γ2 GABAA/BzR; read-out: Ki α4,215 nM
COc1ccc2c(c1)C(=O)N1CCCC1c1c(C(=O)OCC(C)C)ncn1-2 (stereo not shown) [CM-E11],Ki,α5β3γ2 GABAA/BzR [7]; read-out: Ki α5,14 nM
same,Ki,α3β3γ2 GABAA/BzR [8]; read-out: Ki α3,161 nM
same,Ki,α2β3γ2 GABAA/BzR [9]; read-out: Ki α2,308 nM
same,Ki,α6β3γ2 GABAA/BzR [10]; read-out: Ki α6,750 nM
same,Ki,α1β3γ2 GABAA/BzR [11]; read-out: Ki α1,333 nM
same,Ki,α4β3γ2 GABAA/BzR; read-out: Ki α4,394 nM
"CN1C(=O)CN=C(c2ccccc2F)c2cc([N+](=O)[O-])ccc21 [FLUNITRAZEPAM, flunitrazepam]",modulation,[6],agonist
O=C(OCC(F)(F)F)c1cc2c(cn1)[nH]c1ccccc12 [MMB-II-74],Ki,α5β3γ2 GABAA/BzR [7]; read-out: Ki α5,126 nM
same,Ki,α3β3γ2 GABAA/BzR [8]; read-out: Ki α3,41.7 nM
same,Ki,α2β3γ2 GABAA/BzR [9]; read-out: Ki α2,24.5 nM
same,Ki,α6β3γ2 GABAA/BzR [10]; read-out: Ki α6,1000 nM
same,Ki,α1β3γ2 GABAA/BzR [11]; read-out: Ki α1,3 nM
same,Ki,α4β3γ2 GABAA/BzR; read-out: Ki α4,500 nM
CCC(OC(=O)c1ncn2c1C1CCCN1C(=O)c1cc(Br)ccc1-2)C(F)(F)F (stereo not shown) [MMB-II-87],Ki,α5β3γ2 GABAA/BzR [7]; read-out: Ki α5,5.4 nM
same,Ki,α3β3γ2 GABAA/BzR [8]; read-out: Ki α3,107 nM
same,Ki,α2β3γ2 GABAA/BzR [9]; read-out: Ki α2,333 nM
same,Ki,α6β3γ2 GABAA/BzR [10]; read-out: Ki α6,333 nM
same,Ki,α1β3γ2 GABAA/BzR [11]; read-out: Ki α1,200 nM
same,Ki,α4β3γ2 GABAA/BzR; read-out: Ki α4,109 nM
CC(C)OC(=O)c1ncn2c1[C@@H]1CCCN1C(=O)c1cc(Br)ccc1-2 [MMB-II-90],Ki,α5β3γ2 GABAA/BzR [7]; read-out: Ki α5,0.25 nM
same,Ki,α3β3γ2 GABAA/BzR [8]; read-out: Ki α3,5.7 nM
same,Ki,α2β3γ2 GABAA/BzR [9]; read-out: Ki α2,24 nM
same,Ki,α6β3γ2 GABAA/BzR [10]; read-out: Ki α6,36 nM
same,Ki,α1β3γ2 GABAA/BzR [11]; read-out: Ki α1,20 nM
same,Ki,α4β3γ2 GABAA/BzR; read-out: Ki α4,9 nM
CC(OC(=O)c1ncn2c1C1CCCN1C(=O)c1ccccc1-2)C(F)(F)F (stereo not shown) [MMB-III-14],Ki,α5β3γ2 GABAA/BzR [7]; read-out: Ki α5,1.1 nM
same,Ki,α3β3γ2 GABAA/BzR [8]; read-out: Ki α3,6.9 nM
same,Ki,α2β3γ2 GABAA/BzR [9]; read-out: Ki α2,13 nM
same,Ki,α6β3γ2 GABAA/BzR [10]; read-out: Ki α6,333 nM
same,Ki,α1β3γ2 GABAA/BzR [11]; read-out: Ki α1,13 nM
same,Ki,α4β3γ2 GABAA/BzR; read-out: Ki α4,333 nM
CC(C)OC(=O)c1ncn2c1[C@@H]1CCCN1C(=O)c1ccccc1-2 [MMB-III-016],Ki,α5β3γ2 GABAA/BzR [7]; read-out: Ki α5,0.26 nM
same,Ki,α3β3γ2 GABAA/BzR [8]; read-out: Ki α3,2 nM
same,Ki,α2β3γ2 GABAA/BzR [9]; read-out: Ki α2,1.97 nM
same,Ki,α6β3γ2 GABAA/BzR [10]; read-out: Ki α6,211 nM
same,Ki,α1β3γ2 GABAA/BzR [11]; read-out: Ki α1,3 nM
same,Ki,α4β3γ2 GABAA/BzR; read-out: Ki α4,1070 nM
O=C(OC(C(F)(F)F)C(F)(F)F)c1ncn2c1C1CCCN1C(=O)c1ccccc1-2 (stereo not shown) [MMB-III-018],Ki,α5β3γ2 GABAA/BzR [7]; read-out: Ki α5,14 nM
same,Ki,α3β3γ2 GABAA/BzR [8]; read-out: Ki α3,78 nM
same,Ki,α2β3γ2 GABAA/BzR [9]; read-out: Ki α2,140 nM
same,Ki,α6β3γ2 GABAA/BzR [10]; read-out: Ki α6,976 nM
same,Ki,α1β3γ2 GABAA/BzR [11]; read-out: Ki α1,117 nM
same,Ki,α4β3γ2 GABAA/BzR; read-out: Ki α4,3500 nM
C#Cc1ccc2c(c1)C(c1ccccc1F)=NCC(=O)N2C [OMB-18],Ki,α5β3γ2 GABAA/BzR [7]; read-out: Ki α5,0.8 nM
same,Ki,α3β3γ2 GABAA/BzR [8]; read-out: Ki α3,3.4 nM
same,Ki,α2β3γ2 GABAA/BzR [9]; read-out: Ki α2,1.2 nM
same,Ki,α6β3γ2 GABAA/BzR [10]; read-out: Ki α6,5 nM
same,Ki,α1β3γ2 GABAA/BzR [11]; read-out: Ki α1,3.9 nM
same,Ki,α4β3γ2 GABAA/BzR; read-out: Ki α4,1730 nM

# Reference: PMC4657098, “A Review of the Updated Pharmacophore for the Alpha 5 GABA(A) Benzodiazepine Receptor Model” (International Journal of Medicinal Chemistry, 2015)
